Data published in patent US11021507B2, “Myricetin derivative and preparing method thereof, and application of same for treating colitis, preventing and treating colitis tumorigenesis, and treating colorectal cancer” (MARINE BIOMEDICAL RESEARCH INSTITUTE OF QINGDAO CO., LTD., priority 2016, dated 2021).

How the values were obtained:
[1] = Water solubility test (equilibrium solubility in pure water, LC/MS); assay type: physicochemical; conditions: 37° C.
Experimental: Water solubility test for myricetin derivative M5, M6 and M10
Instrument: Waters Alliance e2695 LC/MS; chromatographic column: Waters×Bridge C18 4.6×150 mm.
Appropriate amount of said myricetin derivative was weighed and dissolved in methanol to prepare a solution of 1 mg/ml respectively, which was diluted with methanol to different concentrations of working solution as standard samples for testing.
2. 1 mL of ultrapure water was added into a 1.5 ml transparent EP tube. Appropriate amount of said myricetin derivative was each added into a transparent EP tube, followed by vortex mixation and ultrasonication till the drug was no longer dissolved (the solution appeared cloudy or had suspended particles). The mixture was then placed in an incubating oscillator for shaking at the temperature of (37±1) ° C., 100 r/min, for 24 hours, to achieve a sufficient solubility balance. 24 hours later, the saturated solution was taken out for centrifugation at 3000 r/min for 15 min. The supernatant was immediately filtered through a 0.45 μm microporous membrane, and the initial part of the filtrate was discarded. Samples were added for chromatography. The peak area was measured and the equilibrium solubility of each compound in pure water was calculated using a standard curve.

[2] = tested on: azomethane (AOM)/dextran sulfate sodium (DSS)-induced chronic ulcerative colitis and inflammation-associated tumorigenesis; assay: AOM/DSS-induced chronic ulcerative colitis and inflammation-associated tumorigenesis in mice; assay type: in vivo, C57BL/6 mice
From the text: Determination of therapeutic effect of myricetin derivative M10 on azomethane (AOM)/dextran sulfate sodium (DSS)-induced chronic ulcerative colitis and inflammation-associated tumorigenesis.
Compound tested and control drugs: myricetin derivative M10, control compound myricetin, aspirin (Sigma).
Experimental animals: C57BL/6 mice, 20 to 22 g, both male and female, SPF grade provided by Beijing Vital Lihua Experimental Animal Company, and mice were fed with standard animal feed.
Animal models of AOM/DSS-induced chronic colitis and inflammation-associated tumorigenesis: 48 C57BL/6 mice were randomly divided into six groups with eight mice in each group, including model group, for which 0.5% CMC-Na was administered intragastrically every day; aspirin group, for which 100 mg/kg of aspirin (dissolved in 0.5% CMC-Na) was administered intragastrically; myricetin control group, for which 100 mg/kg of myricetin (dissolved in 0.5% CMCNa) was administered intragastrically; M10 high dose group, for which 100 mg/kg of M10 (dissolved in pure water) was administered intragastrically; M10 medium dose group, for which 50 mg/kg of M10 (dissolved in pure water) was administered intragastrically; M10 low dose group, for which 25 mg/kg of M10 (dissolved in pure water) was administered intragastrically.
Preparation of chronic ulcerative colitis mice model: said groups of mice were intraperitoneally injected with 10 mg/kg of azoxymethane (AOM) on day one. Purified drinking water containing 2% dextran sulfate sodium (DSS) was freshly made and provided on day one and on the next six consecutive days, the replaced by purified drinking water for the next seven consecutive days. The above procedure was then repeated for 3 more times.
M10-treated group: 200 mg of M10 was weighed and dissolved in 10 mL of 0.5% CMC-Na solution (20 mg/mL), and consecutively diluted 2 times and 5 times for future use. 0.2 mL of each prepared solutions was given intragastrically to mice (the body weight was assumed as 20 g per mouse), namely divided into high, medium or small dose groups. Myricetin control group: 200 mg of myricetin was weighed and dissolved in 10 mL of 0.5% CMC-Na. Aspirin-treated group: 200 mg of aspirin was weighed and dissolved in 10 mL of 0.5% CMC-Na. Administration method: The body weight of mice was measured daily, and drugs were administered at 0.01 mL/g (100 mg/kg) per day for 12 consecutive weeks. 4. Animal observation and treatment methods: weight, diet, diarrhea (or bloody stools) etc. were observed daily.
At the end of the experiment, mice were sacrificed. The colon and small intestine were dissected out for visual observation and pathological analysis. Pathological examination methods and evaluation criteria: the mice colons of each group were fixed with 10% formalin, followed by routine paraffin embedding, sectioning and HE staining. The developmental degree of colonic inflammation and colon cancer in each group of mice was evaluated under microscopic observation.

[3] = tested on: endoplasmic reticulum stress signaling molecules GRP78, ATF6, PelF-2a and IREa; assay: AOM/DSS-induced endoplasmic reticulum stress in mouse colon (FIG. 9); assay type: in vivo, C57BL/6 mice
From the text: FIG. 9 illustrates the mechanism of M10 in inhibiting endoplasmic reticulum stress induced by AOM/DSS in Example 13;

[4] = tested on: signaling molecules ATG3, ATG5, ATG7, ATG12, and ATG1611; assay: Cellular autophagy caused by AOM/DSS-induced endoplasmic reticulum stress in colonic epithelial cells (FIG. 10); assay type: in vivo, C57BL/6 mice
From the text: FIG. 10 illustrates the mechanism of M10 in inhibiting cellular autophagy and colonic epithelial cell proliferation and carcinogenesis caused by AOM/DSS-induced endoplasmic reticulum stress in Example 13;

KM mice = assay: Acute toxicity experiment, maximum tolerated dose in mice; assay type: in vivo
Experimental: Acute Toxicity Experiment on Myricetin Derivative M10, Testing Maximum Tolerated Dose in Mice.
Animal germ line: KM mice
The KM mice with quarantine conformity were selected for the experiment. 10 mice weighing 18 g-22 g each after fasting were randomly selected, labeled and housed in separate cages.
In accordance with the acute toxicity testing method in Healthy Food Inspection and Evaluation Technical Specifications (2003 edition), sample solutions were prepared and administered twice intragastrically within 24 hours with the maximum dose of 20 mL/kg. Mice were monitored 1, 4, 8, 24, 48, 72, 96, 120, 144, 168 and 336 hours respectively after drug administration, and the maximum tolerable dose in mice was calculated if no mouse died.

O=c1c(O[C@@H]2O[C@H](CO)[C@@H](O[C@@H]3O[C@H](CO)[C@H](O)[C@H](O)[C@H]3O)[C@H](O)[C@H]2O)c(-c2cc(O)c(O)c(O)c2)oc2cc(O)cc(O)c12 [M10]
Solubility (in words) ([1]; 24 h, per Table 2): excellent solubility
solubility at 24 h ([1]; ultrapure water, thermodynamic from solid): > 100 mg/mL
Pathological analysis of colon tissue (colon cancer) ([2]; 100 mg/kg aspirin or myricetin, M10 25-100 mg/kg, 12 weeks, FIG. 8): significant activity of preventing and treating colon cancer
Symptoms of AOM/DSS-induced chronic colitis (body weight loss, loose stools, blood in stool) ([2]; M10 25, 50 and 100 mg/kg intragastrically, 12 weeks): significantly alleviated
Number of colon tumor nodules ([2]; all doses (25, 50, 100 mg/kg), after 12 weeks, FIG. 6 and FIG. 7): significantly reduced
Loss of body weight induced by AOM/DSS ([2]; intragastric, 12 weeks, week 10 to 12, FIG. 4): significantly prevented
Swollen endoplasmic reticulum membrane, irregular fracture arrangement ([3]; FIG. 9A): significantly alleviated
Activation of stress signaling molecules GRP78, ATF6, PelF-2a and IREa ([3]; FIG. 9B): significantly inhibited
Autophagic vacuoles in colonic epithelial cells with mitochondrial swelling ([4]; FIG. 10A): significantly alleviated
Activation of signaling molecules ATG3, ATG5, ATG7, ATG12 and ATG1611 ([4]; FIG. 10B): significantly inhibited
Maximum tolerable dose in mice (KM mice; administered twice intragastrically within 24 hours, 0.02 mL/g, 250 mg/mL, 14 days observation): more than 5 g/kg
Toxicity during whole observation period (KM mice; fourteen days observation): no obvious toxicity
Death (KM mice; mouse, in vivo): No death
